Data on 17 compounds can be found in article PMC6522510 (Nature Communications, 2019).

Test systems include CHRF288-11; CMK; ML-2; MV4-11; CMS; U937; M07e; MOLM-13.
What all share (design): species or system AML cell lines (8); Primary HTS, single concentration about 10 uM, Cell Titer Glo viability; log10 luminescence, per cent inhibition relative to cycloheximide control
Holding throughout (conditions): 72 h, relative to cycloheximide control, log10 luminescence, inhibitor
In general terms: In ATP-based viability assays light output follows the ATP content of the culture.

Like-named read-outs stand apart in the source and are kept apart here.

On to `N#Cc1cccc(C(=O)c2cnn(-c3ccc(F)cc3)c2N)c1` [SJ000581124-1], for which the CHRF288-11 %inh with CHRF288-11 is -6.686%. Further, in the assay with CMK, the CMK %inh was 1.804%. For the same compound, the ML-2 %inh with ML-2 worked out at 1.377%. Further, in the assay on MV4-11, the MV4-11 %inh is -1.446%. Besides, the CMS %inh with CMS is on record as 0.5963%. Moreover, the U937 %inh in the assay on U937 came out at 2.317%. Further, the M07e %inh in the assay on M07e is recorded as 5.547%. The MOLM-13 %inh with MOLM-13 came to 0.9707%.
Turning to `CC1=C(C(=O)Nc2ccc3[nH]nc(C)c3c2)C(c2ccc(C(F)(F)F)cc2)CC(=O)N1` (stereo not shown) [SJ000573169-1, SD204573-190A1], the CHRF288-11 %inh with CHRF288-11 was 46.87%. Moreover, in the assay on CMK, the CMK %inh came out at 106.1%. For the same compound, the ML-2 %inh in the assay on ML-2 is reported as 13.81%. In the assay with MV4-11, the MV4-11 %inh worked out at 29.81%. The CMS %inh with CMS was found to be 35.88%. Besides, in the assay on U937, the U937 %inh is 19.8%. The M07e %inh in the assay with M07e was 28.71%. The MOLM-13 %inh in the assay on MOLM-13 stood at 15.8%.
As for `Cn1cc(C2=C(c3cn(CCN)c4ccccc34)C(=O)NC2=O)c2ccccc21` [SJ000581125-1], the CHRF288-11 %inh in the assay with CHRF288-11 is reported as -0.3568%. For the same compound, the CMK %inh in the assay on CMK is reported as 4.026%. Further, the ML-2 %inh in the assay on ML-2 is given as 0.3075%. Further, in the assay with MV4-11, the MV4-11 %inh came to 10.77%. The CMS %inh in the assay on CMS was 4.695%. Besides, the U937 %inh in the assay with U937 was -0.6181%. The M07e %inh with M07e is 2.044%. For the same compound, the MOLM-13 %inh in the assay on MOLM-13 was determined as 2.432%.
As for `Cn1c(=O)c(Oc2cccc(F)c2)cc2cnc(NC3CCOCC3)nc21` [SJ000580988-1], in the assay on CHRF288-11, the CHRF288-11 %inh came out at 0.6759%. In addition, the CMK %inh with CMK worked out at 1.711%. For the same compound, in the assay on ML-2, the ML-2 %inh was -0.3057%. Besides, the MV4-11 %inh in the assay with MV4-11 amounted to 0.1701%. For the same compound, the CMS %inh in the assay with CMS is recorded as 1.491%. Also, the U937 %inh with U937 is listed as 1.883%. For the same compound, the M07e %inh with M07e was found to be 0.7165%. For the same compound, the MOLM-13 %inh in the assay on MOLM-13 is 93.55%.
Regarding `Cc1c2ccc(N(C)c3ccnc(Nc4cccc(S(N)(=O)=O)c4)n3)cc2nn1C` [SJ000573283-1, U17574/40/1], the CHRF288-11 %inh in the assay with CHRF288-11 was 6.19%. In the assay on CMK, the CMK %inh was determined as 33.97%. In addition, the ML-2 %inh with ML-2 turned out to be 3.984%. Also, the MV4-11 %inh in the assay with MV4-11 was 13.33%. In addition, the CMS %inh in the assay on CMS amounted to 2.522%. Also, the U937 %inh with U937 is 17.32%. The M07e %inh in the assay with M07e was determined as 4.447%. In addition, the MOLM-13 %inh with MOLM-13 was determined as 26.58%.
Consider `COc1ccc2[nH]c3c4[nH]c5ccc(OC)cc5c4c4c(c3c2c1)C(=O)NC4=O` [SJ000573218-1, 3744W 92C*D], for which, in the assay on CHRF288-11, the CHRF288-11 %inh came to 13.67%. Besides, the CMK %inh in the assay on CMK amounted to 26.51%. The ML-2 %inh with ML-2 is on record as 9.324%. For the same compound, the MV4-11 %inh in the assay with MV4-11 is reported as 76.35%. In the assay with CMS, the CMS %inh is 16.49%. In the assay on U937, the U937 %inh was 14.28%. Moreover, the M07e %inh in the assay with M07e turned out to be 25.27%. For the same compound, in the assay with MOLM-13, the MOLM-13 %inh is 81.75%.
Consider `Nc1nonc1-c1nc2cnccc2n1C1CCCCC1` [SJ000573355-1, SD100950-004A1], for which the CHRF288-11 %inh with CHRF288-11 came out at 15.53%. The CMK %inh in the assay with CMK is 8.293%. In addition, the ML-2 %inh in the assay with ML-2 is listed as 31.12%. For the same compound, the MV4-11 %inh in the assay on MV4-11 was determined as 40.98%. The CMS %inh with CMS was 13.87%. For the same compound, the U937 %inh with U937 came to 17.92%. In addition, in the assay with M07e, the M07e %inh was -4.008%. Also, in the assay with MOLM-13, the MOLM-13 %inh amounted to 7.234%.
In the case of `COC(=O)Nc1nc2cc(Oc3ccc(NC(=O)Nc4cccc(C(=O)O)c4)cc3)ccc2[nH]1` [SJ000573163-1, T261/87/3], the CHRF288-11 %inh in the assay with CHRF288-11 came to 17.31%. For the same compound, the CMK %inh with CMK is listed as 83.28%. Further, the ML-2 %inh with ML-2 amounted to 30.21%. Also, the MV4-11 %inh in the assay on MV4-11 is 11.57%. Besides, the CMS %inh with CMS turned out to be 3.532%. Besides, the U937 %inh in the assay on U937 came out at 31.9%. Besides, the M07e %inh in the assay on M07e turned out to be 13.83%. Besides, the MOLM-13 %inh in the assay on MOLM-13 amounted to 34.2%.
In the case of `Cc1cc(Nc2cc(N3CCN(C)CC3)nc(Sc3ccc(NC(=O)C4CC4)cc3)n2)n[nH]1` [SJ000574290-1, TOZASERTIB | VX-680 | MK-0457 | VX6 | VX-680 | TOZASERTIB | MK-0457 | | VX-680 (TOZASERTIB, MK-0457)], the CHRF288-11 %inh in the assay with CHRF288-11 is recorded as 110.2%. The CMK %inh in the assay with CMK is 63.64%. Also, the ML-2 %inh in the assay with ML-2 is 25.05%. Moreover, in the assay with MV4-11, the MV4-11 %inh worked out at 64.96%. Also, the CMS %inh in the assay with CMS is on record as 15.77%. Also, the U937 %inh with U937 is 19.84%. Besides, in the assay on M07e, the M07e %inh is 61.91%. In addition, the MOLM-13 %inh in the assay on MOLM-13 is reported as 88.48%.
Take `O=[N+]([O-])c1ccc(Oc2ccc(Br)cc2)c(C(O)P(=O)(O)O)c1` (single isomer, unassigned) [SJ000312207-2, RWJ-60475]: in the assay on CHRF288-11 (CHRF288-11 %inh, 10 µM), the CHRF288-11 %inh was 1.479%. In addition, the CMK %inh with CMK (CMK %inh, 10 µM) stood at 0.9236%. Moreover, the ML-2 %inh with ML-2 (ML-2 %inh, 10 µM) came to 0.244%. Further, the MV4-11 %inh in the assay with MV4-11 (MV4-11 %inh, 10 µM) was determined as 4.34%. Further, in the assay on CMS (CMS %inh, 10 µM), the CMS %inh is recorded as 0.5647%. For the same compound, in the assay on U937 (U937 %inh, 10 µM), the U937 %inh was determined as 1.53%. The M07e %inh in the assay with M07e (M07e %inh, 10 µM) is -2.334%. Further, in the assay on MOLM-13 (MOLM-13 %inh, 10 µM), the MOLM-13 %inh was 9.917%.
Consider `Cn1cc(C2=C(c3cn(C)c4c(N)cccc34)C(=O)NC2=O)c2ccccc21` [SJ000581084-1], for which the CHRF288-11 %inh with CHRF288-11 is reported as 31.5%. For the same compound, the CMK %inh with CMK is 34.34%. In the assay on ML-2, the ML-2 %inh is on record as 31.97%. The MV4-11 %inh with MV4-11 was found to be 35.68%. In the assay with CMS, the CMS %inh worked out at 26.64%. Besides, the U937 %inh with U937 worked out at 30.59%. In the assay on M07e, the M07e %inh amounted to 30.04%. In the assay on MOLM-13, the MOLM-13 %inh stood at 57.26%.
As for `O=c1c(-c2ccc(O)cc2)coc2cc(O)ccc12` [SJ000285588-6, DAIDZEIN], the CHRF288-11 %inh in the assay with CHRF288-11 is recorded as 1.05%. Further, the CMK %inh with CMK is -0.373%. In addition, the ML-2 %inh in the assay with ML-2 is reported as -1.236%. Besides, in the assay with MV4-11, the MV4-11 %inh is listed as 0.1059%. In addition, the CMS %inh in the assay with CMS is on record as -1.1%. The U937 %inh in the assay on U937 is -0.9488%. In addition, in the assay on M07e, the M07e %inh worked out at 1.994%. Besides, the MOLM-13 %inh in the assay with MOLM-13 is reported as -0.07438%.
As to `COc1cccc(C2=C(c3cn(C)c4cc(F)ccc34)C(=O)NC2=O)c1` [SJ000581149-1], the CHRF288-11 %inh in the assay on CHRF288-11 amounted to 1.293%. Further, the CMK %inh with CMK is given as -0.7568%. The ML-2 %inh in the assay with ML-2 is -0.5942%. For the same compound, the MV4-11 %inh in the assay with MV4-11 is given as 0.4897%. In addition, in the assay with CMS, the CMS %inh worked out at 6.064%. Also, the U937 %inh in the assay with U937 is on record as 0.6707%. Further, the M07e %inh in the assay on M07e is on record as 3.649%. For the same compound, the MOLM-13 %inh in the assay on MOLM-13 was found to be 1.739%.
As for `COc1ccc2ncn(-c3cc(O[C@H](C)c4ccccc4C(F)(F)F)c(C(N)=O)s3)c2c1` [SJ000573322-1, U20814/199/10], in the assay on CHRF288-11, the CHRF288-11 %inh amounted to 71.55%. For the same compound, the CMK %inh with CMK turned out to be 113.1%. In addition, in the assay with ML-2, the ML-2 %inh stood at 37.32%. Also, the MV4-11 %inh in the assay on MV4-11 came out at 71.74%. For the same compound, the CMS %inh in the assay on CMS stood at 76.93%. In the assay on U937, the U937 %inh came out at 82.26%. In the assay with M07e, the M07e %inh is listed as 100.1%. In addition, the MOLM-13 %inh with MOLM-13 amounted to 82.54%.
For `O=[N+]([O-])c1ccc(Oc2ccc(Br)cc2)c(C(O)P(=O)(O)O)c1` (single isomer, unassigned) [SJ000312207-3, RWJ-60475], in the assay with CHRF288-11 (CHRF288-11 %inh, 10 µM), the CHRF288-11 %inh is on record as -1.978%. Moreover, the CMK %inh in the assay with CMK (CMK %inh, 10 µM) amounted to 2.859%. In addition, in the assay on ML-2 (ML-2 %inh, 10 µM), the ML-2 %inh stood at 4.625%. Also, the MV4-11 %inh with MV4-11 (MV4-11 %inh, 10 µM) came to 2.215%. The CMS %inh with CMS (CMS %inh, 10 µM) is given as -0.822%. Moreover, the U937 %inh with U937 (U937 %inh, 10 µM) is 3.171%. Also, in the assay on M07e (M07e %inh, 10 µM), the M07e %inh is 1.458%. In addition, in the assay with MOLM-13 (MOLM-13 %inh, 10 µM), the MOLM-13 %inh is 10.73%.
In the case of `COc1cc2ncn(-c3cc(OCc4ccccc4Cl)c(C(N)=O)s3)c2cc1OC` [SJ000573023-1, U22436/143/1], the CHRF288-11 %inh in the assay with CHRF288-11 was determined as 71.75%. Moreover, the CMK %inh with CMK turned out to be 98.04%. Further, the ML-2 %inh in the assay with ML-2 turned out to be 36.08%. Besides, in the assay with MV4-11, the MV4-11 %inh is given as 72.02%. For the same compound, in the assay with CMS, the CMS %inh stood at 71.19%. Besides, the U937 %inh with U937 was 71.67%. For the same compound, the M07e %inh in the assay on M07e is reported as 101%. In the assay with MOLM-13, the MOLM-13 %inh was found to be 81.3%.
Regarding `CC(C)(S)[C@@H](N)C(=O)O` [SJ000285530-3, PENICILLAMINE], the CHRF288-11 %inh in the assay with CHRF288-11 is on record as 1.093%. For the same compound, the CMK %inh in the assay with CMK is listed as -2.957%. In addition, in the assay with ML-2, the ML-2 %inh worked out at 0.1436%. For the same compound, the MV4-11 %inh with MV4-11 is reported as 0.7087%. In addition, in the assay with CMS, the CMS %inh is 1.349%. Besides, the U937 %inh in the assay with U937 was -1.029%. Further, the M07e %inh with M07e was 4.147%. Also, the MOLM-13 %inh with MOLM-13 was determined as 4.905%.
